Values quoted from earlier work as cited in patent US20260014155A1, “TICAGRELOR SOLID DISPERSION, METHOD FOR PREPARING SAME, AND USE THEREOF” (WISDOM PHARMACEUTICAL CO., LTD., priority 2022, published 2026).

Settings: low solubility and low permeability

- biopharmaceutical classification: BCS class 4
Structure (SMILES): CCCSc1nc(N[C@@H]2C[C@H]2c2ccc(F)c(F)c2)c2nnn([C@@H]3C[C@H](OCCO)[C@@H](O)[C@H]3O)c2n1 [ticagrelor, (1S,2S,3R,5S)-3-[7-{[(1R,2S)-2-(3,4-difluorophenyl)cyclopropyl]amino}-5-(propylthio)-3H-[1,2,3]-triazolo[4,5-d]pyrimidin-3-yl]-5-(2-hydroxyethoxy)cyclopentane-1,2-diol]
